Target: T1, Beta-carbonic anhydrase 1 (Mycobacterium tuberculosis, UniProt P9WPJ7)
T1 sequence (P9WPJ7 whole entry): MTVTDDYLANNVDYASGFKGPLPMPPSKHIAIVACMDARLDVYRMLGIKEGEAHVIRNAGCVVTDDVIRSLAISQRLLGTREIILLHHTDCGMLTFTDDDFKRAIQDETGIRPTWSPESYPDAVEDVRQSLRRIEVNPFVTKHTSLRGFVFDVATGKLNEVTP

CC(=O)/N=c1/sc(S(N)(=O)=O)nn1C [METHAZOLAMIDE]
Ki: 0.781 µM

From ChEMBL document CHEMBL1138443, “Carbonic anhydrase inhibitors. Cloning, characterization, and inhibition studies of a new beta-carbonic anhydrase from Mycobacterium tuberculosis” (J Med Chem, 2009)
